The subject of data set [1] is mutant KRAS in cell free DNA in plasma. Description: Phase 1b/2 mCRC study, plasma KRAS mutant by ddPCR. It counts as in vivo, human. Conditions: with FOLFIRI and bevacizumab. How it is done: Participants must have histologically confirmed metastatic and unresectable disease, and previously failed treatment or be intolerant to fluoropyrimidine and oxaliplatin with or without bevacizumab.
KRAS in cell free DNA in plasma from patients was periodically quantified using droplet digital PCR (BioRad), where percentage of KRAS that is mutant KRAS was determined. The lower limit of sensitivity of this assay was 0.001% mutant KRAS.
KRAS MAF was measured by digital droplet PCR (ddPCR) at baseline (Cycle 1 Day 1, pre-dose) and on-treatment (Day 1 of Cycles 2 to 9). […] Clinical responses were observed across different KRAS variants, including the 3 most common in CRC. […] In addition, patients with PR and SD tended to have lower on-treatment KRAS MAF than patients with early PD.

Data set [2] concerns cell lines, both from solid as well as hematologic tumors. Conditions: large number of cell lines; cited from earlier work.
For data set [3], the system named is HT29 human colon adenocarcinoma xenografts. The settings on record: in combination with irinotecan; cited from earlier work.
Data set [4] concerns HCT-116 KRAS mutant xenograft. As to the kind of experiment: HCT-116 KRAS-mutant CRC xenograft model. The data set is classed as in vivo. The text has this:
FIG. 6A and FIG. 6B are graphs showing anti-tumor activity of onvansertib in combination with irinotecan and 5-FU in the HCT-116 KRAS-mutant CRC xenograft model.
(§1) Onvansertib, an oral and highly-selective PLK1 inhibitor, is a promising therapeutic option for KRAS-mutated CRC. PLK1, a key regulator of mitosis, is overexpressed in CRC and associated with poor clinical parameters.

For another data set, the target named is PLK1 (Homo sapiens, UniProt P53350). Conditions: including other PLK members; cited from earlier work.
For a further data set, the system named is cancer cell lines. The settings on record: cited from earlier work.
For data set [5], the system named is advanced/metastatic solid tumors. Conditions: evaluable patients; cited from earlier work.
The test system of another data set is xenograft tumor. Conditions: well tolerated doses, oral administration; cited from earlier work.
For data set [6] the following is noted: cited from earlier work.
The test system of data set [7] is disseminated model of AML. The settings on record: in combination with cytarabine; cited from earlier work.
For another data set, the system named is DLD-1 cells. Description: Cell viability (CellTiterGlo) in KRAS mutant and WT isogenic CRC cells. It counts as cell-based. Conditions: 72h treatment.
Description: FIG. 5 is a graph showing cell viability in onvansertib-treated KRAS mutant and WT isogenic CRC cells.
as §1
Background: In ATP-based viability assays light output follows the ATP content of the culture.

The conditions of data set [8]: cited from earlier work. This is another data set of the same source.

A value given as a limit tells only on which side of the number the result lay.

Chain of PLK1 (P53350 whole entry): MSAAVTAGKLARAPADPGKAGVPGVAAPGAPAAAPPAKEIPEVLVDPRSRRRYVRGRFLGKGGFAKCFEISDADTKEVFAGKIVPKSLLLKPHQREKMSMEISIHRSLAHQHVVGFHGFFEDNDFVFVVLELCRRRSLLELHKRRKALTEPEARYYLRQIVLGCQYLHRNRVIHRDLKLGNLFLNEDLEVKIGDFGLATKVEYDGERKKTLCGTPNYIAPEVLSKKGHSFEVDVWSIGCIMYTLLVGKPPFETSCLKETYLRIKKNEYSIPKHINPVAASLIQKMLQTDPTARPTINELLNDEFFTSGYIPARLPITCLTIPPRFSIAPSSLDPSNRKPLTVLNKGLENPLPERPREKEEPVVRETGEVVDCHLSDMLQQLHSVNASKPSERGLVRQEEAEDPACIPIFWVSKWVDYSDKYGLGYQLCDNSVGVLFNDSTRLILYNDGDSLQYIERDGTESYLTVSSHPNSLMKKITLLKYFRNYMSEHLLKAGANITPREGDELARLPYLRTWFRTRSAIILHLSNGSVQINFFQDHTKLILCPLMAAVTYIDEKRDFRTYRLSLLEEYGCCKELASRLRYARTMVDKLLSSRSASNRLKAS

Regarding `CN1CCN(c2ccc(OC(F)(F)F)c(Nc3ncc4c(n3)-c3c(c(C(N)=O)nn3CCO)CC4)c2)CC1` [onvansertib, 1-(2-hydroxyethyl)-8-{[5-(4-methylpiperazin-1-yl)-2-(trifluoromethoxy)phenyl]amino}-4,5-dihydro-1H-pyrazolo[4,3-h] quinazoline-3-carboxamide], the “patients with KRAS undetectable within the 1st cycle” value in data set [1] (12 mg/m^2, 4 patients detectable at baseline) was determined as 4 patients; in data set [1] (15 mg/m^2, 2 patients detectable at baseline), 1 patients. For the same compound, the “change of KRAS mutant variants within the first cycle” value in data set [1] (five variants in 6 patients, 12 and 15 mg/m^2) was “decreased”. In addition, the “potency in proliferation assays” value in data set [2] was “low nanomolar activity”. Besides, the “tumor regression compared to each agent alone” value in [3] is listed as “enhanced tumor regression”. Also, in [4] (in combination with irinotecan and 5-FU), the combination effect result is “synergy”. The anti-tumor activity entry in data set [4] (single agent) was “potent anti-tumor activity”. Also, at PLK1, the “specificity for PLK1 among a panel of 296 kinases” value was “high specificity”. The “effect on cell cycle” value in the data set on cancer cell lines is “mitotic cell-cycle arrest followed by apoptosis”. Besides, the “patients with stable disease” value in [5] is reported as 5 of 16. In the data set with xenograft tumor, the xenograft tumor growth entry is given as “inhibits xenograft tumor growth”. Also, in data set [6] (in vivo), the half-life entry is reported as “about 24 hours”. Moreover, the oral bioavailability entry in data set [6] (rodent and nonrodent species) was “good oral bioavailability”. In addition, in [7], the survival of animals result is on record as “prolonged survival”. The “mitotic arrest and cell death, mutant KRAS vs wild-type cells” value in the data set on DLD-1 cells was “more profound mitotic arrest and cell death in mutant KRAS cells”. Moreover, the primary dose-limiting toxicities result in data set [8] (in vivo) is “neutropenia and thrombocytopenia”. Moreover, the “recovery of hematologic toxicities” value in data set [8] (reversible) is on record as no more than 3 weeks. For the same compound, the “recommended phase 2 dose” value in [8] (single agent) is listed as 24 mg/m^2.

The values above are taken from patent US20230172935A1, “METHODS OF MONITORING KRAS MUTATIONS” (Cardiff Oncology, Inc., priority 2020, published 2023).
